Source: patent publication US20020025929A1, “METHOD OF BUILDING AND MAINTAINING BONE” (priority 1997, published 2002)

Test system: ovariectomized rats
Test: Uterine wet weight of ovariectomized rats
Type: in vivo, Sprague-Dawley female rats
Conditions: OVX rats; compound 1a 0.003-3 mg/kg; 17α-ethynyl estradiol 0.1 mg/kg
Procedure: Following treatment with the test compounds, the rats were anesthetized and subjected to cardiac puncture and euthanized by CO2 inhalation. Uteri were removed and wet weight were determined on a Mettler balance to evaluate ovariectomy and efficacy of treatment with estrogen. Blood samples were allowed to clot at 4° C. for 2 hr before centrifugation at 2,000 g for 10 min. Serum were collected and stored at −70° C. before analysis. Serum cholesterol was assayed using a high performance calorimetric assay (Boehringer Mannheim Biochemicals, Indianapolis, Ind.). Tibia and femora were removed, cleaned of soft-tissue, fixed in 50% ethanol/ saline, and stored at 4° C. Vertebra L1-6 were removed and analyzed by QCT, histomorphometry, and biomechanics.
In the first study, six-month old virgin Sprague-Dawley female rats weighing about 300 g each were maintained on a 12 hr light/12 hr dark cycle at 22° C. with ad lib access to food (TD 89222 diet containing 0.5% calcium and 0.4% phosphorus, Teklad, Madison, Wis., USA), Except for sham-operated control animals, bilateral ovariectomies were performed on the test animals. In the case of the sham-operated animals, the surgical ovariectomization technique was followed, but the ovaries were left intact to provide a control for assessing any effect which might be due to the surgical trauma. […]

## C#C[C@]1(O)CC[C@H]2[C@@H]3CCc4cc(O)ccc4[C@H]3CC[C@@]21C [EE2, 17α-ethynyl estradiol]
  uterine wet weight: increased uterine weight above OVX to Sham levels
